Test results as given in patent US20260265176A1, “SUBSTITUTED CYCLOHEXENE AND CYCLOHEXANE INHIBITORS OF ORNITHINE AMINOTRANSFERASE” (Northwestern University, priority 2023, published 2026).

How the values were obtained:
Type in all cases: biochemical
hOAT [1] = biological target: T1, hOAT (Homo sapiens, UniProt P04181); experiment: Inactivation of hOAT, coupled enzyme assay (kinetic constants); details: for kinact / kinact/K1, hOAT / Ki: inactivation of hOAT; for Ki: read-out: K1, hOAT
T1 construct: made in house; host or cells: Escherichia coli BL21 (DE3)
T1 sequence (P04181 26-439): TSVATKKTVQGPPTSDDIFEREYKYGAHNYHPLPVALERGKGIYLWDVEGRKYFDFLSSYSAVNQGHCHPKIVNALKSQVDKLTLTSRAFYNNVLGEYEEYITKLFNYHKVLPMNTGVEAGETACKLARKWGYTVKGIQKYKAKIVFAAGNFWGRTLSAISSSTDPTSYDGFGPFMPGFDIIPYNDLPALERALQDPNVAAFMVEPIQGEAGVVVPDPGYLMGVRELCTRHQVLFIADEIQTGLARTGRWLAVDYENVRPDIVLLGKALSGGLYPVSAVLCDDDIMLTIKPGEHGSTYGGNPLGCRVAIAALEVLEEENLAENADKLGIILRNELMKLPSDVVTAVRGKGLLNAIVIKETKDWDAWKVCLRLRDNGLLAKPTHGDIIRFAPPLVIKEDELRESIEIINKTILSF
Protocol: (§1) Recombinant human brain γ-aminobutyric acid aminotransferase (hGABA-AT) was expressed and purified according to literature procedures with slight modifications.^26 Briefly, pelleted Expi293 cells were resuspended into buffer A containing 50 mM K4O7P2 pH 8.6, 300 mM NaCl, and 100 μM PLP. The suspension was lysed using four repeat cycles of sonication (10 s on, 10 s off, 20% amplitude) on ice followed by the addition of 12.5 mM MgCl, 125 μM CaCl, and 5 mg of lyophilized DNase I. The lysate incubated on ice for 60 minutes with periodic inversions followed by a two step centrifugation procedure to pellet cell debris. Step one included centrifugation at 18000 rpm for 60 minutes at 4° C. followed by the collection of supernatant and a secondary step at 20000 rpm for 45 minutes. The supernatant was collected, and the sample was loaded into a disposable 0.45 μm bottle-top vacuum filter system to remove remaining cell debris. The resulting sample was then loaded onto a Co^2+ immobilized metal affinity chromatography column pre-equilibrated with buffer A. The column was washed with 40 mL of buffer A before hGABA-AT was eluted using a step-wise elution gradient of buffer A supplemented with 200 mM imidazole. The step-wise gradient totaled 5 steps of increasing imidazole concentration (1 mM, 2 mM, 5 mM, 100 mM, 200 mM). Individual 4 mL fractions containing hGABA-AT were combined and concentrated to a volume of 3 mL using a 30000 Da molecular weight cutoff (MWCO) Amicon Ultra centrifugal filter device. For further purification, the sample was loaded onto a HiLoad Superdex-200PG column (16 mm×600 mm) pre-equilibrated with buffer A and subjected to size exclusion chromatography at a flow rate of 0.25 mL/min. PYCR1 was purified according to previously published protocols.^38 Coupled enzyme assays for hGABA-AT, hOAT, Ala-AT, and Asp-AT were carried out according to previous procedures.^26

hGABA-AT = biological target: T2, hGABA-AT (Homo sapiens, UniProt P80404); experiment: Inactivation of hGABA-AT, coupled enzyme assay (kinetic constants); details: for kinact/K1, hGABA-AT: inactivation of hGABA-AT, K1 and kinact not determinable
T2 construct: made in house; host or cells: Expi293 cells
T2 sequence (P80404 29-500): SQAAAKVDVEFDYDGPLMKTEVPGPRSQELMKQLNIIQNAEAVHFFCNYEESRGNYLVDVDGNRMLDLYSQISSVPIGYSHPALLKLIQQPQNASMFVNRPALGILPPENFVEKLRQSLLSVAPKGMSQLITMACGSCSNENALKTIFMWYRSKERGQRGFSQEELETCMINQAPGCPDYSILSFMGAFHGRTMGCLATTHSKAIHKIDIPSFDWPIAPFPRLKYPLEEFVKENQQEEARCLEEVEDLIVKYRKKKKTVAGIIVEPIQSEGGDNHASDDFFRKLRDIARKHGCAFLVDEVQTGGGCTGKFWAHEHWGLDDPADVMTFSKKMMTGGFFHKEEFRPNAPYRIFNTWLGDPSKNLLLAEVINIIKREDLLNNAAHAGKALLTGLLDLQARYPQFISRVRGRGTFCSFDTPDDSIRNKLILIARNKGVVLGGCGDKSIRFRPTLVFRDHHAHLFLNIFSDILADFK
Protocol: as §1

hOAT [2] = biological target: T1, hOAT; experiment: Partition ratio / turnover number by titration of hOAT with inactivator; details: for partition ratio: turnover number minus one
Source text: Determination of the Turnover Mechanism to Metabolites The partition ratio of an MBI is the ratio of compound that acts as a substrate relative to the compound that inactivates the enzyme. Ideally, plotting the enzyme activity remaining after inactivation versus equivalents of compound added will provide a straight line from 100 to 0% enzyme activity remaining. The x-intercept of this line would give the number of inactivator molecules required to inactivate a single enzyme active site (the turnover number). This number represents the total number of compound molecules that were engaged by the active site until the enzyme was inactivated. Of these compounds, only the final one will inactivate the enzyme, and the others will have been consumed as substrates. As a result, the partition ratio is the turnover number minus one (assuming a 1:1 stoichiometry of inactivator to enzyme in the inactivated complex).
The partition ratio of 17 was determined by titrating a known amount of hOAT with varying equivalents of inactivator (FIG. 7). The linear relationship of the remaining enzymatic activity was extrapolated to yield the exact number of equivalents of 17 to inactivate the enzyme completely. From this we determined the turnover number to be 4.27 and thus the partition ratio of 17 to be 3.27.
The turnover number for 17 was determined to be 2.2 by titrating a fixed amount of hOAT with varying equivalents of 17, measuring the remaining enzyme activities for the different equivalents of inhibitor, and employing the method of Pham et al.^32 (FIG. 24). The partition ratio, therefore, is 1.2.
The partition ratio was calculated using previous protocols.^26,28

hOAT [3] = biological target: T1, hOAT; experiment: Time-dependent reactivation experiment (dialysis) of hOAT inactivated by 17
Protocol: Mass spectrometry, however, might differentiate those possibilities. To confirm irreversible inactivation of hOAT by 17, a time-dependent reactivation experiment (dialysis) was performed. […] Aliquots at different time intervals were collected and assayed to detect restored enzyme activity. […] It takes approximately 10 equiv of 17, however, to produce complete enzyme inactivation.
The dialysis experiment was conducted using previous protocols.^26,38

hOAT [4] = biological target: T1, hOAT; experiment: Transient-state stopped-flow spectrophotometry of hOAT reacting with inactivator; details: hyperbolic fit of kobs vs inactivator concentration, hOAT 17 μM, 20° C.
Protocol: Vertical arrows indicate the sequence of the observed spectra after initiating the experiment. […] A sample of hOAT (17 μM) was mixed with 17 (0-11 mM) using a stopped-flow spectrophotometer, and the reaction was observed between 300 and 800 nm for 150 sec using CCD detection. Several representative spectra from the data set are shown here.
FIG. 16C depicts the dependence of observed rate constants on the concentration of [5]. Fitting to a rectangular hyperbolic function (kobs=klimit[5]/K[5]+[5] returned an observed limiting rate constant of 0.20±0.01 s^−1 and a dissociation constant for reversible formation of the external aldimine of 2.9±0.4 mM.
The data collected using stopped-flow spectrophotometry serves as additional evidence for the proposed mechanism. […]
The subsequent increase in absorbance at 325 nm would thus report the accumulation of both the turnover and inhibition products, with no difference in rates.
Transient-State Kinetic Characterization of hOAT with […]: A sample of hOAT (17 μM) was mixed with 17 (0-11 mM) at 20° C. using a rapid mixing stopped-flow spectrophotometer (TgK Scientific) equipped with charge-coupled device (CCD) detection, allowing for the collection time-resolved spectra. […] A reconstructed time zero point was included in the data and was obtained by adding the spectrum of the enzyme and the spectrum of the inhibitor when measured separately. […]

[5] = listed as (±) 22, hydrochloride
[6] = from turnover number/partition ratio study, FIG. 24

Cl.N[C@@H]1C[C@H](C(=O)O)CC(F)(F)C1 (racemic) [(±)22, cis-5-Amino-3,3-difluorocyclohexane-1-carboxylic acid hydrochloride]
inhibition of hOAT (in words) (hOAT [1]; hydrochloride): No inhibition up to 10 mM | inhibition of hOAT (in words) (hOAT [1]; [5]): little or no inhibitory effect | inhibition of hGABA-AT (in words) (hGABA-AT; hydrochloride): Weak reversible inhibition at 10 mM | inhibition of hGABA-AT (in words) (hGABA-AT; [5]): little or no inhibitory effect

Cl.N[C@H]1C=C(C(=O)O)CC(F)(F)C1 [Compound 17, (R)-3-amino-5,5-difluorocyclohex-1-ene-1-carboxylic acid hydrochloride]
share of compound undergoing turnover to a product and PMP (hOAT [2]; [6]): 55% | share of turnover resulting in inactivation (hOAT [2]; [6]): 45% | turnover number (hOAT [2]; linear extrapolation of remaining activity, FIG. 7): 4.27 | turnover number (hOAT [2]; method of Pham et al., FIG. 24): 2.2 | partition ratio (hOAT [2]; FIG. 7): 3.27 | partition ratio (hOAT [2]; FIG. 24): 1.2 | kinact (hOAT [1]): 0.00467 s⁻¹ | kinact/K1, hOAT (hOAT [1]): 17.3 M⁻¹ s⁻¹ | Ki (hOAT [1]): 270 ± 70 µM | kinact/KI (hOAT [1]; read-out: overall efficiency (kinact/KI) against hOAT (converted)): 17.3 M⁻¹ s⁻¹ | kinact/K1, hGABA-AT (hGABA-AT): 2.83 M⁻¹ s⁻¹ | enzymatic activity recovered after dialysis (hOAT [3]; 72 hours of dialysis, hOAT treated with 0.6-10 equivalents of 17): No enzymatic activity was recovered | equivalents needed to produce complete enzyme inactivation (hOAT [3]; hOAT): approximately 10 equiv | observed limiting rate constant (hOAT [4]): 0.20 ± 0.01 s⁻¹ | Kd (hOAT [4]; read-out: dissociation constant for reversible formation of the external aldimine): 2900 ± 400 µM

Cl.N[C@H]1CC(C(=O)O)=CC(F)(F)C1 [Compound 17a, (S)-5-amino-3,3-difluorocyclohex-1-ene-1-carboxylic acid hydrochloride]
kinact (hOAT [1]): 0.0025 s⁻¹ | kinact/K1, hOAT (hOAT [1]): 1.83 M⁻¹ s⁻¹ | Ki (hOAT [1]): 1200 ± 400 µM | kinact/KI, fold less effective than that of 17 for hOAT (hOAT [1]; relative to 17): 10 fold | kinact/K1, hGABA-AT (hGABA-AT): 2 M⁻¹ s⁻¹
